Consider 4 compounds from patent US6858624B2, “Aryl fused azapolycyclic compounds” (Pfizer, Inc., priority 2001, dated 2005).

Data set [1] is described as follows: biotransformation in liver microsomes. The format is in vitro ADME. Conditions: bicarbonate buffer, CO2 atmosphere, UDPGA. The text has this:
A number of studies have been conducted on precursor compounds to those of formula I of the present invention. In particular, studies have been carried out on 5,8,14-triazatetracyclo[10.3.1.0^2,110.0^4,9]-hexadeca-2(11),3,5,7,9-pentaene: [drawing 12] Means of the synthesis of this compound may be found International Patent Publication No. WO 99/35131 and WO 01/62736.
In general terms: Liver microsomes are a subcellular fraction often used to study metabolism.

Data set [2] is described as follows: in vivo metabolism study, human (circulating and excreted metabolites). The text has this: (§1) The compound 5,8,14-triazatetracyclo[10.3.1.0^2,110.0^4,9]-hexadeca-2(11),3,5,7,9-pentaene has also been studied in vivo (rat, monkey, mouse, and human). Metabolite structures are described in Scheme I below.
(§2) The N-carbamoyl glucuronide represents an unusual, albeit not unprecedented metabolite that arises via association of carbon dioxide with the secondary amine followed by glucuronidation. […] The only excreted metabolites in human were the hydroxyquinoxaline metabolite (2.9% of dose): [drawing 17] and N-carbamoyl glucuronide (3.6% of dose).

Data set [3] in a line: in vivo metabolism study, preclinical species.
Source text: as §1, §2

As for `c1cnc2cc3c(cc2n1)C1CNCC3C1` [5,8,14-triazatetracyclo[10.3.1.0^2,110.0^4,9]-hexadeca-2(11),3,5,7,9-pentaene], the “biotransformation in liver microsomes” value in data set [1] is “underwent N-carbamoyl glucuronidation”. For the compound `O=C(O)C1OC(OC(=O)N2CC3CC(C2)c2cc4nccnc4cc23)C(O)C(O)C1O` (stereo not drawn) [N-carbamoyl glucuronide], the “metabolites in human circulation” value in data set [2] was “Metabolites in human circulation included”. Besides, in data set [2] (after 5,8,14-triazatetracyclo[10.3.1.0^2,110.0^4,9]-hexadeca-2(11),3,5,7,9-pentaene), the “excreted metabolite in human” value is given as 3.6 % of dose. For the same compound, the “metabolite present in rat and monkey” value in data set [3] is “present in rat and monkey”. In the case of `O=CN1CC2CC(C1)c1cc3nccnc3cc12` [N-formyl], the “metabolites in human circulation” value in data set [2] is recorded as “Metabolites in human circulation included”. On to `Oc1cnc2cc3c(cc2n1)C1CNCC3C1` (stereo not drawn) [hydroxyquinoxaline metabolite], for which the “excreted metabolite in human” value in data set [2] (in vivo) is 2.9 % of dose.
